# Experimental data: patent US11338007B2, “Combination formulation of three antiviral compounds” (priority 2016, dated 2022)
# Experiments:
# [1] = Photostability of tablet cores and film-coated tablets per ICH Q1B (Table 12); type: physicochemical
# Experimental: Tablet cores and film-coated tablets were evaluated per ICH Q1B guidelines with a total of illumination of more than 1.2 million-lux hours and a total irradiance of more than 200 W·hr/m^2.
# [2] = Tablet dissolution, 1.0% w/v CTAB in 190 mM acetate buffer pH 4.0, USP Type II, 75 rpm; type: physicochemical
# genotype 2 or 3 HCV = experiment: SVR in HCV infected patients given sofosbuvir plus other HCV therapeutics; type: in vivo, human; settings: 400 mg once daily plus other HCV therapeutics; genotype 2 or 3 HCV infected patients
# Experimental: Safety and tolerability appeared similar across both dose levels. In addition, when sofosbuvir 400 mg once daily plus other HCV therapeutics were given to genotype 2 or 3 HCV infected patients, 100% SVR24 was observed.
# [3] = Tablet dissolution, 50 mM sodium acetate buffer pH 5.0 with 2.0% w/v Polysorbate 80, USP Type II, 75 rpm; type: physicochemical
# Experimental: FIGS. 10-12 depict additional dissolution profiles for the sofosbuvir/velpatasvir SSD/voxilaprevir SSD tablets having the formulation described in Table 13 and which were used in phase 1, 2, and 3 clinical studies, where the dissolution testing was conducted at pH 5.0 acetate buffer containing 2.0% w/v polysorbate 80. Four batches of the sofosbuvir/velpatasvir SSD/voxilaprevir SSD tablets were tested, with Batch A manufactured at 100 kg and Batches B, C and D manufactured at 145 kg. All other aspects of the formulation and manufacturing process were otherwise equivalent. […] Moreover, for Batch A, the amount dissolved at 30 min remained between 98 and 100% for sofosbuvir, between 90 and 92% for velpatasvir SSD, and between 89 and 93% for voxilaprevir SSD. […] For Batch D, the amount dissolved at 30 min remained at 100% for sofosbuvir, between 90 and 91% for velpatasvir SSD, and between 89 and 91% for voxilaprevir SSD. Release of velpatasvir SSD and voxilaprevir SSD from the sofosbuvir/velpatasvir SSD/voxilaprevir SSD tablets associated with all four Batches was complete after 60 minutes.
# [4] = Food effect (high calorie/high-fat meals) on pharmacokinetics in human subjects (Table 28); type: in vivo; settings: tablets 400/100/100 mg; high calorie/high-fat meal
# Experimental: The effect of food (high calorie/high-fat meals) on the pharmacokinetics of sofosbuvir/velpatasvir SSD/voxilaprevir SSD tablets (400/100/100 mg). […] As a result, sofosbuvir/velpatasvir SSD/voxilaprevir SSD tablets are administered with food.
# [5] = Tablet dissolution as a function of medium pH and composition (FIGS. 13-15); type: physicochemical; settings: Formulation G tablets; independent of medium pH and composition
# [6] = film-coating 0% weight gain, Exposed to Light
# [7] = film-coating 2.1% weight gain, Exposed to Light
# [8] = film-coating 2.1% weight gain, Protected from Light
# [9] = film-coating 3.4% weight gain, Exposed to Light
# [10] = film-coating 3.4% weight gain, Protected from Light
# [11] = film-coating 4.1% weight gain, Exposed to Light
# [12] = film-coating 4.1% weight gain, Protected from Light
# [13] = film-coating 5.4% weight gain, Protected from Light
smiles,measurement,setting,value
"CC(C)OC(=O)C(C)N[P@](=O)(OC[C@H]1O[C@@H](n2ccc(=O)[nH]c2=O)[C@](C)(F)[C@@H]1O)Oc1ccccc1 (stereo in doubt) [sofosbuvir, (S)-isopropyl 2-(((S)-(((2R,3R,4R,5R)-5-(2,4-dioxo-3,4-dihydropyrimidin-1(2H)-yl)-4-fluoro-3-hydroxy-4-methyltetrahydrofuran-2-yl)methoxy)(phenoxy)phosphoryl)amino)propanoate]",LS,[1]; [6],101.5%
same,Total Imp./Deg. Products,[1]; [6],0.0%
same,Total Imp./Deg. Products,"[1]; film-coating 0% weight gain, Protected from Light",0.0%
same,LS,[1]; [7],101.7%
same,Total Imp./Deg. Products,[1]; [7],0.0%
same,LS,[1]; [8],101.2%
same,Total Imp./Deg. Products,[1]; [8],0.0%
same,LS,[1]; [9],100.6%
same,Total Imp./Deg. Products,[1]; [9],0.0%
same,LS,[1]; [10],101.8%
same,Total Imp./Deg. Products,[1]; [10],0.0%
same,LS,[1]; [11],102.0%
same,Total Imp./Deg. Products,[1]; [11],0.0%
same,LS,[1]; [12],101.2%
same,Total Imp./Deg. Products,[1]; [12],0.0%
same,Total Imp./Deg. Products,"[1]; film-coating 5.4% weight gain, Exposed to Light",0.0%
same,LS,[1]; [13],101.0%
same,Total Imp./Deg. Products,[1]; [13],0.0%
same,level of degradation products,[1]; tablets film-coated to weight gains 2.1 to 5.4%,0.0%
same,loss after exposure to light,[1]; uncoated tablet cores,no change
same,Dissolved at 30 min,"[2]; Lot A (14 ct), 25° C./60% RH Closed, 1 month",98%
same,Dissolved at 30 min,"[2]; Lot A (14 ct), 25° C./60% RH Closed, 3 months",103%
same,Dissolved at 30 min,"[2]; Lot A (14 ct), 25° C./60% RH Closed, 6 months",103%
same,Dissolved at 30 min,"[2]; Lot A (14 ct), 40° C./75% RH Closed, 1 month",100%
same,Dissolved at 30 min,"[2]; Lot A (14 ct), 40° C./75% RH Closed, 3 months",100%
same,Dissolved at 30 min,"[2]; Lot A (14 ct), 40° C./75% RH Closed, 6 months",100%
same,Dissolved at 30 min,"[2]; Lot A (14 ct), 40° C./75% RH Open, 1 month",98%
same,Dissolved at 30 min,"[2]; Lot A (14 ct), 40° C./75% RH Open, 3 months",101%
same,Dissolved at 30 min,"[2]; Lot A (14 ct), 40° C./75% RH Open, 6 months",100%
same,Dissolved at 30 min,"[2]; Lot A (14 ct), Initial",103%
same,Dissolved at 30 min,"[2]; Lot B (28 ct), 25° C./60% RH Closed, 1 month",102%
same,Dissolved at 30 min,"[2]; Lot B (28 ct), 25° C./60% RH Closed, 3 months",100%
same,Dissolved at 30 min,"[2]; Lot B (28 ct), 25° C./60% RH Closed, 6 months",102%
same,Dissolved at 30 min,"[2]; Lot B (28 ct), 40° C./75% RH Closed, 1 month",97%
same,Dissolved at 30 min,"[2]; Lot B (28 ct), 40° C./75% RH Closed, 3 months",99%
same,Dissolved at 30 min,"[2]; Lot B (28 ct), 40° C./75% RH Closed, 6 months",99%
same,Dissolved at 30 min,"[2]; Lot B (28 ct), Initial",103%
same,SVR24,genotype 2 or 3 HCV,100%
same,Dissolved at 30 min,"[3]; Batch A, 25° C./60% RH, 3 months",98%
same,Dissolved at 30 min,"[3]; Batch A, 25° C./60% RH, 6 months",98%
same,Dissolved at 30 min,"[3]; Batch A, 30° C./75% RH, 3 months",98%
same,Dissolved at 30 min,"[3]; Batch A, 30° C./75% RH, 6 months",100%
same,Dissolved at 30 min,"[3]; Batch A, 40° C./75% RH, 1 month",98%
same,Dissolved at 30 min,"[3]; Batch A, 40° C./75% RH, 3 months",99%
same,Dissolved at 30 min,"[3]; Batch A, 40° C./75% RH, 6 months",100%
same,Dissolved at 30 min,"[3]; Batch A, Initial",98%
same,Dissolved at 30 min,"[3]; Batch B, 25° C./60% RH, 3 months",99%
same,Dissolved at 30 min,"[3]; Batch B, 25° C./60% RH, 6 months",99%
same,Dissolved at 30 min,"[3]; Batch B, 30° C./75% RH, 3 months",99%
same,Dissolved at 30 min,"[3]; Batch B, 30° C./75% RH, 6 months",99%
same,Dissolved at 30 min,"[3]; Batch B, 40° C./75% RH, 1 month",100%
same,Dissolved at 30 min,"[3]; Batch B, 40° C./75% RH, 3 months",100%
same,Dissolved at 30 min,"[3]; Batch B, 40° C./75% RH, 6 months",98%
same,Dissolved at 30 min,"[3]; Batch B, Initial",99%
same,amount dissolved at 30 min,[3]; Batch D,100%
same,Dissolved at 30 min,"[3]; Batch D, 40° C./75% RH, 1 month",100%
same,Dissolved at 30 min,"[3]; Batch D, Initial",100%
same,dissolution at 30 minutes,"[3]; potency study Lot B, after 4 weeks open at 40° C./75% RH",100%
same,release at 30 minutes,[3]; tablet Lots A and B with different sofosbuvir particle size,101%
same,Dissolved at 30 min (%),"[3]; tablets Batch C, 1 g desiccant, 25° C./60% RH, 3 months",101%
same,Dissolved at 30 min (%),"[3]; tablets Batch C, 1 g desiccant, 25° C./60% RH, 6 months",99%
same,Dissolved at 30 min (%),"[3]; tablets Batch C, 1 g desiccant, 30° C./75% RH, 3 months",99%
same,Dissolved at 30 min (%),"[3]; tablets Batch C, 1 g desiccant, 30° C./75% RH, 6 months",99%
same,Dissolved at 30 min (%),"[3]; tablets Batch C, 1 g desiccant, 40° C./75% RH, 1 month",100%
same,Dissolved at 30 min (%),"[3]; tablets Batch C, 1 g desiccant, 40° C./75% RH, 3 months",100%
same,Dissolved at 30 min (%),"[3]; tablets Batch C, 1 g desiccant, 40° C./75% RH, 6 months",99%
same,Dissolved at 30 min (%),"[3]; tablets Batch C, 1 g desiccant, Initial, time 0",99%
same,Dissolved at 30 min (%),"[3]; tablets from VEL SSD 7.0% water, VOX SSD 3.2% water, Initial, time 0",100%
same,effect of food on plasma exposure,[4],does not substantially alter
same,dissolution complete within,[5],≤ 20 min
